Laboratory results as given in ChEMBL document CHEMBL6078668, “Synthesis and biological evaluation of lappaconitine analogues as potential anti-neuroinflammatory agents by side chain modification and scaffold hopping strategy” (Bioorg Med Chem, 2025).
Calls of active or inactive are those of the source. No cut-off for these calls is given here.

Tests used:
[1] = Cytotoxicity against C57BL/6 mouse BV-2 cells assessed as survival rate at 30 uM incubated for 24 hrs by MTT assay relative to control; format: toxicity, cell-based; settings: read-out: Survival
BV-2 [2] = assay: Anti-neuroinflammatory activity against LPS-stimulated C57BL/6 mouse BV-2 cells assessed as inhibition of NO release at 30 uM preincubated with compound for 4 hrs followed by LPS addition and measured after 24 hrs by Griess reagent based assay relative to control; format: functional; settings: C57BL/6, BV-2, time 28 hrs
BV-2 [3] = assay: Anti-neuroinflammatory activity against LPS-stimulated C57BL/6 mouse BV-2 cells assessed as inhibition of NO release preincubated with compound for 4 hrs followed by LPS addition and measured after 24 hrs by Griess reagent based assay; format: functional, cell-based; settings: C57BL/6, BV-2
BV-2 [4] = assay: Cytotoxicity against C57BL/6 mouse BV-2 cells assessed as effect on cell viability at 30 to 60 uM incubated for 24 hrs by MTT assay; format: toxicity, cell-based; settings: bv-2, 24 h, dose 30-60 µM
BV-2 [5] = assay: Anti-neuroinflammatory activity against LPS-stimulated C57BL/6 mouse BV-2 cells assessed as inhibition of NO release at 30 to 60 uM preincubated with compound for 4 hrs followed by LPS addition and measured after 24 hrs by Griess reagent based assay; format: functional, cell-based; settings: dose 30-60 µM, time 28.0 hrs
BV-2 [6] = assay: Anti-neuroinflammatory activity against LPS-stimulated C57BL/6 mouse BV-2 cells assessed as decrease in TNF-alpha expression level preincubated with compound for 4 hrs followed by LPS addition and measured after 24 hrs by ELISA; format: functional, cell-based; settings: dose 30-60 µM, time 28.0 hrs
BV-2 [7] = assay: Anti-neuroinflammatory activity against LPS-stimulated C57BL/6 mouse BV-2 cells assessed as decrease in IL-6 expression level preincubated with compound for 4 hrs followed by LPS addition and measured after 24 hrs by ELISA; format: functional, cell-based; settings: dose 30-60 µM, time 28.0 hrs
BV-2 [8] = assay: Anti-neuroinflammatory activity against LPS-stimulated C57BL/6 mouse BV-2 cells assessed as decrease in IL-1beta expression level preincubated with compound for 4 hrs followed by LPS addition and measured after 24 hrs by ELISA; format: functional, cell-based; settings: dose 30-60 µM, time 28.0 hrs
BV-2 [9] = assay: Anti-neuroinflammatory activity against LPS-stimulated C57BL/6 mouse BV-2 cells assessed as decrease in TNF-alpha mRNA expression level at 30 to 60 uM preincubated with compound for 4 hrs followed by LPS addition and measured after 24 hrs by RT-PCR analysis; format: functional, cell-based; settings: dose 30-60 µM, time 28.0 hrs
BV-2 [10] = assay: Anti-neuroinflammatory activity against LPS-stimulated C57BL/6 mouse BV-2 cells assessed as decrease in IL-6 mRNA expression level at 30 to 60 uM preincubated with compound for 4 hrs followed by LPS addition and measured after 24 hrs by RT-PCR analysis; format: functional, cell-based; settings: dose 30-60 µM, time 28.0 hrs
BV-2 [11] = assay: Anti-neuroinflammatory activity against LPS-stimulated C57BL/6 mouse BV-2 cells assessed as decrease in IL-1beta mRNA expression level at 30 to 60 uM preincubated with compound for 4 hrs followed by LPS addition and measured after 24 hrs by RT-PCR analysis; format: functional, cell-based; settings: dose 30-60 µM, time 28.0 hrs
BV-2 [12] = assay: Anti-neuroinflammatory activity against LPS-stimulated C57BL/6 mouse BV-2 cells assessed as downregulation of COX-2 mRNA expression level at 30 to 60 uM preincubated with compound for 4 hrs followed by LPS addition and measured after 24 hrs by RT-PCR analysis; format: functional, cell-based; settings: dose 30-60 µM, time 28.0 hrs
BV-2 [13] = assay: Anti-neuroinflammatory activity against LPS-stimulated C57BL/6 mouse BV-2 cells assessed as downregulation of iNOS mRNA expression level at 30 to 60 uM preincubated with compound for 4 hrs followed by LPS addition and measured after 24 hrs by RT-PCR analysis; format: functional, cell-based; settings: dose 30-60 µM, time 28.0 hrs
BV-2 [14] = assay: Anti-neuroinflammatory activity against LPS-stimulated C57BL/6 mouse BV-2 cells assessed as downregulation of COX-2 protein expression level by Western blot analysis; format: functional, cell-based; settings: dose 30-60 µM
BV-2 [15] = assay: Anti-neuroinflammatory activity against LPS-stimulated C57BL/6 mouse BV-2 cells assessed as downregulation of iNOS protein expression level by Western blot analysis; format: functional, cell-based; settings: dose 30-60 µM
BV-2 [16] = assay: Downregulation of TLR4 protein expression in C57BL/6 mouse BV-2 cells at 30 to 60 uM preincubated with compound for 4 hrs followed by LPS stimulation by Western blot analysis; format: functional, cell-based; settings: dose 30-60 µM
BV-2 [17] = assay: Downregulation of MyD88 protein expression in C57BL/6 mouse BV-2 cells at 30 to 60 uM preincubated with compound for 4 hrs followed by LPS stimulation by Western blot analysis; format: functional, cell-based; settings: dose 30-60 µM
BV-2 [18] = assay: Inhibition of NFkappaB p65 nuclear translocation in LPS-stimulated C57BL/6 mouse BV-2 cells at 30 to 60 uM preincubated with compound for 4 hrs followed by LPS stimulation by Western blot analysis; format: cell-based; settings: dose 30-60 µM
BV-2 [19] = assay: Inhibition of IkappaB phosphorylation in LPS-stimulated C57BL/6 mouse BV-2 cells at 30 to 60 uM preincubated with compound for 4 hrs followed by LPS stimulation by Western blot analysis; format: cell-based; settings: dose 30-60 µM
[20] = Acute toxicity in Kunming mouse assessed as animal death at 325 to 928 mg/kg, po measured after 14 days; format: organism-based; settings: in vivo, 336 h, dose 325-928 mg/kg, time 14 day
[21] = Acute toxicity in Kunming mouse assessed as animal death at 250 mg/kg, po measured after 14 days; format: organism-based; settings: in vivo, 336 h, time 14 day
[22] = Acute toxicity in po dosed Kunming mouse assessed as lethal dose measured after 14 days; format: organism-based; settings: in vivo, time 14 day
[23] = Acute toxicity in Kunming mouse assessed as histological abnormalities in heart at 250 mg/kg, po measured after 14 days by H and E staining based analysis; format: organism-based; settings: in vivo, 336 h, time 14 day
[24] = Acute toxicity in Kunming mouse assessed as histological abnormalities in liver at 250 mg/kg, po measured after 14 days by H and E staining based analysis; format: organism-based; settings: in vivo, 336 h, time 14 day
[25] = Acute toxicity in Kunming mouse assessed as histological abnormalities in spleen at 250 mg/kg, po measured after 14 days by H and E staining based analysis; format: organism-based; settings: in vivo, 336 h, time 14 day
[26] = Acute toxicity in Kunming mouse assessed as histological abnormalities in lung at 250 mg/kg, po measured after 14 days by H and E staining based analysis; format: organism-based; settings: in vivo, 336 h, time 14 day
[27] = Acute toxicity in Kunming mouse assessed as histological abnormalities in kidney at 250 mg/kg, po measured after 14 days by H and E staining based analysis; format: organism-based; settings: in vivo, 336 h, time 14 day

`CCN1C[C@]2(OC(=O)c3ccccc3NC(=O)S(=O)(=O)c3cccc(F)c3)CC[C@H](OC)[C@]34C1[C@@H](C[C@H]23)[C@@]1(O)C[C@H](OC)[C@H]2C[C@@H]4[C@]1(O)[C@H]2OC` gave a viability at 24 h, 30 µM [1] of 107%, an inhibition at 30 µM (BV-2 [2]) of 85.8% and an IC50 (BV-2 [3]) of 9.98 µM. For the same compound, the Activity (BV-2 [4]) was “Non-toxic”, the Activity (BV-2 [5]) was “Active” and the Activity (BV-2 [6]) was “Dose-dependent-effect”. The Activity (BV-2 [7]) was “Dose-dependent-effect”, the Activity (BV-2 [8]) was “Dose-dependent-effect” and the Activity (BV-2 [9]) was “Active”. For the same compound, the Activity (BV-2 [10]) was “Active”, the Activity (BV-2 [11]) was “Active” and the Activity (BV-2 [12]) was “Active”. For the same compound, the Activity (BV-2 [13]) was “Active”, the Activity (BV-2 [14]) was “Dose-dependent-effect” and the Activity (BV-2 [15]) was “Dose-dependent-effect”. For the same compound, the Activity (BV-2 [16]) was “Active”, the Activity (BV-2 [17]) was “Active” and the inhibition (BV-2 [18]) was “Active”. The inhibition (BV-2 [19]) was “Active”, the Activity [20] was “Toxic” and the Activity [21] was “Non-toxic”. The LD50 at 336 h [22] was 508 mg/kg, the Activity [23] was “Non-toxic” and the Activity [24] was “Non-toxic”. For the same compound, the Activity [25] was “Non-toxic”, the Activity [26] was “Non-toxic” and the Activity [27] was “Non-toxic”.
